Reference: patent publication US20220062240A1, “METHODS OF TREATING CANCER USING A CLK INHIBITOR” (BioSplice Therapeutics, Inc., priority 2018, published 2022)
Like-named read-outs stand apart in the source and are kept apart here.

What was measured:
[1] = system: ovarian cancer (4 cell lines); assay: CellTiter-Glo Viability Assay, ovarian cancer; type: cell-based; settings: Homo sapiens, inhibition of cancer cell proliferation
[2] = system: colorectal cancer (6 cell lines); assay: CellTiter-Glo Viability Assay, colorectal cancer; type: cell-based; settings: Homo sapiens, inhibition of cancer cell proliferation
all 50 cell lines = assay: CellTiter-Glo Viability Assay, average across all cell lines; type: cell-based; settings: Homo sapiens; across all 50 cell lines; read-out: average EC50 for inhibition of cancer cell proliferation
Outline: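 4-day proliferation, 37° C/5% CO2; 300-3,000 cells/well; compound in duplicate vs DMSO controls. Panel: breast, colorectal, heme/lymphoid, liver, lung, ovarian, pancreatic, prostate lines. Read-out: CellTiter-Glo ATP luminescence, EC50 from dose-response.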

[3] = system: prostate cancer (5 cell lines); assay: CellTiter-Glo Viability Assay, prostate cancer; type: cell-based; settings: Homo sapiens
[4] = system: pancreatic cancer (8 cell lines); assay: CellTiter-Glo Viability Assay, pancreatic cancer; type: cell-based; settings: Homo sapiens, inhibition of cancer cell proliferation
[5] = system: haematopoietic & lymphoid tumors (13 cell lines); assay: CellTiter-Glo Viability Assay, haematopoietic & lymphoid tumors; type: cell-based; settings: Homo sapiens, inhibition of cancer cell proliferation
DU4475 = assay: CellTiter-Glo Viability Assay, breast cancer; type: cell-based; settings: Homo sapiens, DU-4475, 96 h; DU4475, breast cancer, four days; read-out: EC50
ZR-75-1 = assay: CellTiter-Glo Viability Assay, breast cancer; type: cell-based; settings: Homo sapiens, 96 h; ZR-75-1, breast cancer, four days; read-out: EC50
CAMA1 = assay: CellTiter-Glo Viability Assay, breast cancer; type: cell-based; settings: Homo sapiens, CAMA-1, 96 h; CAMA1, breast cancer, four days; read-out: EC50
T47D = assay: CellTiter-Glo Viability Assay, breast cancer; type: cell-based; settings: Homo sapiens, 96 h, breast cancer, four days, read-out: EC50
MCF7 = assay: CellTiter-Glo Viability Assay, breast cancer; type: cell-based; settings: Homo sapiens, 96 h; MCF7, breast cancer, four days; read-out: EC50
HCC1599 = assay: CellTiter-Glo Viability Assay, breast cancer; type: cell-based; settings: Homo sapiens, 96 h; HCC1599, breast cancer, four days; read-out: EC50
MDA-MB-231-Luc = assay: CellTiter-Glo Viability Assay, breast cancer; type: cell-based; settings: Homo sapiens, 96 h; MDA-MB-231-Luc, breast cancer, four days; read-out: EC50
BT-549 = assay: CellTiter-Glo Viability Assay, breast cancer; type: cell-based; settings: Homo sapiens, 96 h; BT-549, breast cancer, four days; read-out: EC50
[6] = system: liver cancer (3 cell lines); assay: CellTiter-Glo Viability Assay, liver cancer; type: cell-based; settings: Homo sapiens, inhibition of cancer cell proliferation
CLK3 = CLK3 (Homo sapiens, UniProt P49761); assay: CLK3 kinase activity assay (Z-lyte, Ser/Thr 18 peptide)
[7] = system: lung cancer (4 cell lines); assay: CellTiter-Glo Viability Assay, lung cancer; type: cell-based; settings: Homo sapiens, inhibition of cancer cell proliferation
CLK2 = target: T1, CLK2 (Homo sapiens, UniProt P49760); assay: CLK2 kinase activity assay (Z-lyte, Ser/Thr 6 peptide); type: biochemical; settings: recombinant CLK2 kinase, ATP 60 μM; read-out: EC50
T1 construct: purchased Thermo Fisher (Life Technologies), Z'-LYTE Kinase Assay Kits
Method: All reactions were performed in duplicate.

T1 sequence (P49760 whole entry): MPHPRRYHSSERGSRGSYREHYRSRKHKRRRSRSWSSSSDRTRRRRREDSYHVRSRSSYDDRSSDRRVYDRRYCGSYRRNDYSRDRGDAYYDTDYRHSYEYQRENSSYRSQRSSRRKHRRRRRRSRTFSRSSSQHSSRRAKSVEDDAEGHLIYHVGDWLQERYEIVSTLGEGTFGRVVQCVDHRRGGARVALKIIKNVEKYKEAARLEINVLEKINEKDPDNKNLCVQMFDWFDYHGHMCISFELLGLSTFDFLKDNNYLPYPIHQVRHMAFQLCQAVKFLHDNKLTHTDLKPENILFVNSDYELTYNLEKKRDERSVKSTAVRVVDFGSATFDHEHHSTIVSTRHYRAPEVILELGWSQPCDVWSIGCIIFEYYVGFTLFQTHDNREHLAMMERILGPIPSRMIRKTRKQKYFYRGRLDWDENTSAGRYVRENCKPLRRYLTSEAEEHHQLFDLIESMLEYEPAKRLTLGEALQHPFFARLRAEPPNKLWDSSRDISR
Chain of CLK3 (P49761 whole entry): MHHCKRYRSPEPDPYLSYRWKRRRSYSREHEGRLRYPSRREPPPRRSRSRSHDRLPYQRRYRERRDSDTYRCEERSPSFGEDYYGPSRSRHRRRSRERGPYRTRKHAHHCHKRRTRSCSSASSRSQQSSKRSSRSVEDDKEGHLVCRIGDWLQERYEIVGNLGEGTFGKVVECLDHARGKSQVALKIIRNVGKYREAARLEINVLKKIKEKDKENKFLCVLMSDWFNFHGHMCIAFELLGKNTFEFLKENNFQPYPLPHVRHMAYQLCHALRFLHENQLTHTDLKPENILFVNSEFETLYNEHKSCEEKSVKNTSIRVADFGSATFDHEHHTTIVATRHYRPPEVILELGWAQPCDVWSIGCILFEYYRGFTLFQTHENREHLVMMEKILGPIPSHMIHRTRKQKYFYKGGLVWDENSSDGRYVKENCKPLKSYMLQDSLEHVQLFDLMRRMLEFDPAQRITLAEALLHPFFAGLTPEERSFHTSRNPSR

EC50 ([1]; PA-1, PA1 cell line, read-out: Ovarian cancer, EC50 (μM) PA1): 2.29 µM | EC50 ([1]; TOV112D, TOV-112D cell line, read-out: Ovarian cancer, EC50 (μM) TOV-112D): 0.446 µM | EC50 ([1]; OV-90 cell line, read-out: Ovarian cancer, EC50 (μM) OV-90): 1.6 µM | EC50 ([1]; OVCAR-3 cell line, read-out: Ovarian cancer, EC50 (μM) OVCAR-3): 0.145 µM | EC50 ([2]; HCT-116, HCT116 cell line, read-out: Colorectal cancer, EC50 (μM) HCT116): 0.749 µM | EC50 ([2]; HT-29, HT29 cell line, read-out: Colorectal cancer, EC50 (μM) HT29): 8.88 µM | EC50 ([2]; SW-620, SW620 cell line, read-out: Colorectal cancer, EC50 (μM) SW620): 0.385 µM | EC50 ([2]; DLD-1 cell line, read-out: Colorectal cancer, EC50 (μM) DLD-1): 3.57 µM | EC50 ([2]; SW48 cell line, read-out: Colorectal cancer, EC50 (μM) SW48): 0.861 µM | EC50 ([2]; SW480 cell line, read-out: Colorectal cancer, EC50 (μM) SW480): 0.305 µM | EC50 ([3]; DU-145, read-out: Prostate cancer EC50 Du-145): 1160 nM | EC50 ([3]; PC-3, PC3 cell line, inhibition of cancer cell proliferation, read-out: Prostate cancer EC50 PC3): 473 nM | EC50 ([3]; 22Rv1 cell line, inhibition of cancer cell proliferation, read-out: Prostate cancer EC50 22Rv1): 563 nM | EC50 ([3]; LNCap clone FGC cell line, inhibition of cancer cell proliferation, read-out: Prostate cancer EC50 LNCap clone FGC): 2820 nM | EC50 ([3]; VCaP (Sigma) cell line, inhibition of cancer cell proliferation, read-out: Prostate cancer EC50 VCaP (Sigma)): 2460 nM | EC50 ([4]; BXPC-3, BxPC3 cell line, read-out: Pancreatic cancer, EC50 BxPC3): 3540 nM | EC50 ([4]; CAPAN-1, Capan1 cell line, read-out: Pancreatic cancer, EC50 Capan1): 1810 nM | EC50 ([4]; Capan-2, Capan2 cell line, read-out: Pancreatic cancer, EC50 Capan2): 3000 nM | EC50 ([4]; MIA PaCa-2 cell line, read-out: Pancreatic cancer, EC50 MIA PaCa-2): 220 nM | EC50 ([4]; PANC 05.04 cell line, read-out: Pancreatic cancer, EC50 PANC 05.04): 2120 nM | EC50 ([4]; PANC-1 cell line, read-out: Pancreatic cancer, EC50 PANC-1): > 10000 nM | EC50 ([4]; UPAFII cell line, read-out: Pancreatic cancer, EC50 UPAFII): 1290 nM | EC50 ([5]; DND41, DND-41 cell line, read-out: Haematopoietic & Lymphoid tumors, EC50 (μM) DND-41): 0.176 µM | EC50 ([5]; MV4-11, MV-4-11 cell line, read-out: Haematopoietic & Lymphoid tumors, EC50 (μM) MV-4-11): 0.046 µM | EC50 ([5]; Rec1, REC-1 cell line, read-out: Haematopoietic & Lymphoid tumors, EC50 (μM) REC-1): 7.2 µM | EC50 ([5]; SU-DHL-4, SUDHL4 cell line, read-out: Haematopoietic & Lymphoid tumors, EC50 (μM) SUDHL4): 0.477 µM | EC50 ([5]; HL-60 cell line, read-out: Haematopoietic & Lymphoid tumors, EC50 (μM) HL-60): 1.02 µM | EC50 ([5]; JM1 cell line, read-out: Haematopoietic & Lymphoid tumors, EC50 (μM) JM1): 0.222 µM | EC50 ([5]; JURKAT, Clone E6-1 cell line, read-out: Haematopoietic & Lymphoid tumors, EC50 (μM) JURKAT, Clone E6-1): 2.44 µM | EC50 ([5]; JeKo-1 cell line, read-out: Haematopoietic & Lymphoid tumors, EC50 (μM) JeKo-1): 0.088 µM | EC50 ([5]; KASUMI-1 cell line, read-out: Haematopoietic & Lymphoid tumors, EC50 (μM) KASUMI-1): 0.804 µM | EC50 ([5]; Loucy cell line, read-out: Haematopoietic & Lymphoid tumors, EC50 (μM) Loucy): 0.15 µM | EC50 ([5]; MOLT-4 cell line, read-out: Haematopoietic & Lymphoid tumors, EC50 (μM) MOLT-4): 2.02 µM | EC50 ([5]; TF-1 cell line, read-out: Haematopoietic & Lymphoid tumors, EC50 (μM) TF-1): 4.7 µM | EC50 ([5]; TOLEDO cell line, read-out: Haematopoietic & Lymphoid tumors, EC50 (μM) TOLEDO): 0.249 µM | EC50 (DU4475): 3130 nM | EC50 (ZR-75-1): 1280 nM | EC50 (CAMA1): 340 nM | EC50 (T47D): 455 nM | EC50 (MCF7): 6390 nM | EC50 (HCC1599): 209 nM | EC50 (MDA-MB-231-Luc): 1500 nM | EC50 (BT-549): 761 nM | EC50 ([6]; SNU-398, SNU398 cell line, read-out: Liver cancer, EC50 SNU398): 79 nM | EC50 ([6]; HEPG2 cell line, read-out: Liver cancer, EC50 HEPG2): 2090 nM | EC50 ([6]; PLC/PRF/5 cell line, read-out: Liver cancer, EC50 PLC/PRF/5): > 10000 nM | EC50 (CLK3): 27.5 nM | EC50 ([7]; A-427, A427 cell line, read-out: Lung cancer, EC50 (μM) A427): 0.23 µM | EC50 ([7]; HCC78, HCC-78 cell line, read-out: Lung cancer, EC50 (μM) HCC-78): 0.961 µM | EC50 ([7]; NCI-H460 cell line, read-out: Lung cancer, EC50 (μM) NCI-H460): > 10 µM | EC50 ([7]; NCI-H522 cell line, read-out: Lung cancer, EC50 (μM) NCI-H522): 0.327 µM | EC50 (CLK2): 9.7 nM
Structure (SMILES): CS(=O)(=O)NCc1cc(F)cc(-c2nccc3[nH]c(-c4n[nH]c5ccc(-c6cncc(NC(=O)C7CCC7)c6)cc45)cc23)c1 [Compound 53]
EC50 (all 50 cell lines): 2120 nM
